Laboratory results reported in patent publication US20130338130A1 (priority 2009, published 2013).
Several values for one entry are separate records, joined by “and”; a condition that tells them apart may be missing. Equal values may be shown once. Read-outs that look alike come from different tables or passages of the source.

Assays:
[1] = system: ATCC strain 43300 Staphylococcus aureus; settings: for survival (cfu/ml): triplicate platings
Procedure: Additional antibiotic was added every 24 hours. The growth periods tested were 24 (FIG. 5), 48, 72, 96 and 120 hours.
USP<51> Antimicrobial Effectiveness protocol was used as the template experimental paradigm. […] All concentrations were plated out to the 10^−7 dilutions to ascertain cfu/ml. […] Additional antibiotic was added at the initial concentration every 24 hours.
ATCC strain 43300 Staphylococcus aureus was streaked out for isolations. An isolated colony was chosen, streaked again and incubated. Isolate was chosen and then diluted to a McFarland standard of one. The estimated value was then taken to inoculate tubes containing growth media and 12, 30 or 60 μg/ml methicillin with approximately 10^5 cfu/ml. These tubes were incubated and plated for counting cfu.
Material was calculated on a 10 ml volume. Sterile methicillin was added to each experimental condition to a final concentration of 12, 30 or 60 μg/ml antibiotic. Lactose Broth positive controls both with and without the 12 μg/ml, 30 μg/ml, 60 μg/ml antibiotic were inoculated with MRSA. […] Tubes were set up in singlet, but plated in triplicate, as described below.
All tubes were then inoculated with a dilution of the selected ATCC strain 43300 Staphylococcus aureus clone giving a final level of colony forming units of 1.49×10^5/ml (log=5.17). The tubes were incubated at 25° C. and mixed periodically. Antibiotic was re-inoculated every 24 hours at the initial concentration to maintain pressure on the organism. Plating was done at 24, 48, 72, and 120 hours. Each condition was plated by diluting 1 ml of growth material into 9 ml of MLB diluent broth. […] This mixture was serial diluted down to 10^−7 with 1 ml placed in triplicate in a sterile petri dish at each dilution point. 20 mls of TSA was added to each dilution, swirled and allowed to solidify. All dilutions were placed in a 35° C. incubator for 24 to 72 hours. Bacterial colonies on each plate were counted and the average taken then changed into log format. […] Graphs were recorded as log of 5.2 for TNTC to show comparison among the other data points.
The tubes were spun down at 5000 rpm for 10 minutes. The supernatant was then decanted into 90 mls of Mueller-Hinton broth with 6 μg/ml methicillin. This is for enrichment and the recovery of any MRSA cells that may be present wether healthy or stressed. The pellet had 10 mls Mueller-Hinton broth with 6 μg/ml methicillin added to it to recover any cells that may be present. Both vessels were incubated at 35° C. for 48 hours and plated each 24 hours. Each vessel was plated at 10 dilutions to obtain a 1 cfu detection limit. Since all vessels were at a 1/10 dilution in the enrichment solution plating each vessel in this manner gave us a detection limit of 1 cfu/ml. […] This time point for graphing purposes will be reported as 0 logs.

[2] = system: ATCC strain 43300 Staphylococcus aureus; assay: MRSA survival in MSM and oxacillin, simulated course of treatment (Example 3); settings: for survival (Log cfu/ml): 6 μg/ml oxacillin added daily + MSM (% in label)
Procedure: After 24 hours, another 6 μg/ml oxacillin was added to the incubations, bringing the total amount of oxacillin added to 12 μg/ml. […] This experimental paradigm simulates the repeated application of antibiotic that a subject would receive over a course of treatment.
USP<51> Antimicrobial Effectiveness protocol was used as the template experimental paradigm. […] All concentrations were plated out to the 10^−7 dilutions to ascertain cfu/ml. […] This concentration is the industry standard for determining MRSA resistance in clinical applications. An additional 6 μg/ml oxacillin was added daily.
Material was calculated on a 10 ml volume. Sterile oxacillin was added to each experimental condition daily at 300 μl from a 30 mg/10 ml concentration giving it a final concentration of 6 μg/ml.
All tubes were inoculated at a dilution of MRSA giving a final concentration of colony forming units of 9.14×10^5/ml (Log=5.96). The tubes were incubated at 25° C. and mixed periodically. Plating was done at 48 hours and 7 days. […] These were serial diluted down to 10^−7 with 1 ml placed in a sterile petri dish at each dilution point. 20 mls of TSA was added to each dilution and swirled and allowed to solidify. All dilutions were placed in a 35° C. incubator for 24 hours. Plates were counted and colony counts changed into log format. A positive and negative control was ascertained.

SMILES: CS(C)(=O)=O [MSM, Methylsulfonylmethane]
- survival (cfu/ml) ([1]; 12 μg/ml methicillin (re-added every 24 hours) + MSM (% in label), 24 hours, inoculum 1.49×10^5/ml, listed as 9% MSM): 9.0 × 10^2 cfu/ml and 9.4 × 10^2 cfu/ml and 9.2 × 10^2 cfu/ml
- survival (cfu/ml) ([1]; 12 μg/ml methicillin (re-added every 24 hours) + MSM (% in label), 24 hours, inoculum 1.49×10^5/ml, listed as 10% MSM): 1.4 × 10^3 cfu/ml
- survival (cfu/ml) ([1]; 12 μg/ml methicillin (re-added every 24 hours) + MSM (% in label), 24 hours, inoculum 1.49×10^5/ml, listed as 11% MSM): 2.2 × 10^3 cfu/ml and 2.3 × 10^3 cfu/ml
- survival (cfu/ml) ([1]; 12 μg/ml methicillin (re-added every 24 hours) + MSM (% in label), 24 hours, inoculum 1.49×10^5/ml, listed as 12% MSM): 2.9 × 10^3 cfu/ml and 3.0 × 10^3 cfu/ml and 2.8 × 10^3 cfu/ml
- survival (cfu/ml) ([1]; 12 μg/ml methicillin (re-added every 24 hours) + MSM (% in label), 24 hours, inoculum 1.49×10^5/ml, listed as 13% MSM): 3.3 × 10^3 cfu/ml and 3.5 × 10^3 cfu/ml and 3.4 × 10^3 cfu/ml
- survival (cfu/ml) ([1]; 12 μg/ml methicillin (re-added every 24 hours) + MSM (% in label), 24 hours, inoculum 1.49×10^5/ml, listed as 14% MSM): 8.8 × 10^3 cfu/ml and 8.5 × 10^3 cfu/ml and 8.2 × 10^3 cfu/ml
- survival (cfu/ml) ([1]; 12 μg/ml methicillin (re-added every 24 hours) + MSM (% in label), 24 hours, inoculum 1.49×10^5/ml, listed as 15% MSM): 6.4 × 10^3 cfu/ml and 6.6 × 10^3 cfu/ml and 6.5 × 10^3 cfu/ml
- survival (cfu/ml) ([1]; 12 μg/ml methicillin (re-added every 24 hours) + MSM (% in label), 24 hours, inoculum 1.49×10^5/ml, listed as 16% MSM): 1.01 × 10^3 cfu/ml and 1.03 × 10^3 cfu/ml and 1.04 × 10^3 cfu/ml
- log reduction ([1]; 12 μg/ml methicillin, 24 hours): 2.2 log
- log reduction in colony count ([1]; 12 μg/ml methicillin, 48 hours): 4.1 log
- recovery after enrichment in Mueller-Hinton broth ([1]; 12 μg/ml methicillin, 72 hours, detection limit 1 cfu/ml): true total kill
- colony count ([1]; 12 μg/ml methicillin, 96 hours): TNTC
- recovery after enrichment in Mueller-Hinton broth ([1]; 12 μg/ml methicillin, 96 hours, detection limit 1 cfu/ml): true total kill
- colony count ([1]; 12 μg/ml methicillin, 120 hours): TNTC
- average log reduction in colony count ([1]; 12 μg/ml methicillin, all MSM concentrations, 24 hours): 1.5 logs
- survival (cfu/ml) ([1]; 30 μg/ml methicillin + MSM (% in label), 24 hours, listed as 5% MSM): 3.8 × 10^2 cfu/ml and 4.1 × 10^2 cfu/ml and 4.0 × 10^2 cfu/ml
- survival (cfu/ml) ([1]; 30 μg/ml methicillin + MSM (% in label), 24 hours, listed as 6% MSM): 2.2 × 10^2 cfu/ml and 2.5 × 10^2 cfu/ml
- survival (cfu/ml) ([1]; 30 μg/ml methicillin + MSM (% in label), 24 hours, listed as 7% MSM): 3.4 × 10^2 cfu/ml and 3.5 × 10^2 cfu/ml and 3.3 × 10^2 cfu/ml
- survival (cfu/ml) ([1]; 30 μg/ml methicillin + MSM (% in label), 24 hours, listed as 8% MSM): 9.4 × 10^2 cfu/ml and 9.6 × 10^2 cfu/ml
- survival (cfu/ml) ([1]; 30 μg/ml methicillin + MSM (% in label), 24 hours, listed as 9% MSM): 1.1 × 10^3 cfu/ml and 1.3 × 10^3 cfu/ml and 1.2 × 10^3 cfu/ml
- survival (cfu/ml) ([1]; 30 μg/ml methicillin + MSM (% in label), 24 hours, listed as 10% MSM): 1.2 × 10^3 cfu/ml and 1.3 × 10^3 cfu/ml and 1.1 × 10^3 cfu/ml
- survival (cfu/ml) ([1]; 30 μg/ml methicillin + MSM (% in label), 24 hours, listed as 11% MSM): 3.3 × 10^3 cfu/ml and 2.8 × 10^3 cfu/ml and 3.1 × 10^3 cfu/ml
- survival (cfu/ml) ([1]; 30 μg/ml methicillin + MSM (% in label), 24 hours, listed as 12% MSM): 3.3 × 10^3 cfu/ml
- survival (cfu/ml) ([1]; 30 μg/ml methicillin + MSM (% in label), 24 hours, listed as 13% MSM): 6.5 × 10^3 cfu/ml and 6.4 × 10^3 cfu/ml
- survival (cfu/ml) ([1]; 30 μg/ml methicillin + MSM (% in label), 24 hours, listed as 14% MSM): 6.3 × 10^3 cfu/ml and 6.7 × 10^3 cfu/ml and 6.9 × 10^3 cfu/ml
- survival (cfu/ml) ([1]; 30 μg/ml methicillin + MSM (% in label), 24 hours, listed as 15% MSM): 7.8 × 10^3 cfu/ml and 7.6 × 10^3 cfu/ml and 8.0 × 10^3 cfu/ml
- survival (cfu/ml) ([1]; 30 μg/ml methicillin + MSM (% in label), 24 hours, listed as 16% MSM): 9.6 × 10^3 cfu/ml and 9.8 × 10^3 cfu/ml and 9.7 × 10^3 cfu/ml
- log reduction in colony count ([1]; 30 μg/ml methicillin, 24 hours): 2.8 log
- recovery after enrichment in Mueller-Hinton broth ([1]; 30 μg/ml methicillin, 120 hours, detection limit 1 cfu): true total kill
- average log reduction ([1]; 30 μg/ml methicillin, lower end of MSM concentrations, 24 hours): 3 log
- survival (cfu/ml) ([1]; 60 μg/ml methicillin + MSM (% in label), 24 hours, listed as 5% MSM): 8.3 × 10^2 cfu/ml and 8.1 × 10^2 cfu/ml
- survival (cfu/ml) ([1]; 60 μg/ml methicillin + MSM (% in label), 24 hours, listed as 6% MSM): 4.2 × 10^2 cfu/ml and 4.8 × 10^2 cfu/ml
- survival (cfu/ml) ([1]; 60 μg/ml methicillin + MSM (% in label), 24 hours, listed as 7% MSM): 6.1 × 10^2 cfu/ml and 6.3 × 10^2 cfu/ml and 6.2 × 10^2 cfu/ml
- survival (cfu/ml) ([1]; 60 μg/ml methicillin + MSM (% in label), 24 hours, listed as 8% MSM): 9.4 × 10^2 cfu/ml and 9.8 × 10^2 cfu/ml and 9.7 × 10^2 cfu/ml
- survival (cfu/ml) ([1]; 60 μg/ml methicillin + MSM (% in label), 24 hours, listed as 9% MSM): 2.0 × 10^3 cfu/ml and 1.6 × 10^3 cfu/ml and 1.8 × 10^3 cfu/ml
- survival (cfu/ml) ([1]; 60 μg/ml methicillin + MSM (% in label), 24 hours, listed as 10% MSM): 2.2 × 10^3 cfu/ml and 2.1 × 10^3 cfu/ml and 2.0 × 10^3 cfu/ml
- survival (cfu/ml) ([1]; 60 μg/ml methicillin + MSM (% in label), 24 hours, listed as 11% MSM): 3.5 × 10^3 cfu/ml and 3.8 × 10^3 cfu/ml and 3.9 × 10^3 cfu/ml
- survival (cfu/ml) ([1]; 60 μg/ml methicillin + MSM (% in label), 24 hours, listed as 12% MSM): 4.5 × 10^3 cfu/ml and 4.1 × 10^3 cfu/ml and 4.7 × 10^3 cfu/ml
- survival (cfu/ml) ([1]; 60 μg/ml methicillin + MSM (% in label), 24 hours, listed as 13% MSM): 7.0 × 10^3 cfu/ml and 6.8 × 10^3 cfu/ml and 6.5 × 10^3 cfu/ml
- survival (cfu/ml) ([1]; 60 μg/ml methicillin + MSM (% in label), 24 hours, listed as 14% MSM): 8.3 × 10^3 cfu/ml and 8.8 × 10^3 cfu/ml and 8.5 × 10^3 cfu/ml
- survival (cfu/ml) ([1]; 60 μg/ml methicillin + MSM (% in label), 24 hours, listed as 15% MSM): 8.3 × 10^3 cfu/ml and 8.5 × 10^3 cfu/ml and 8.4 × 10^3 cfu/ml
- survival (cfu/ml) ([1]; 60 μg/ml methicillin + MSM (% in label), 24 hours, listed as 16% MSM): 8.4 × 10^3 cfu/ml and 8.5 × 10^3 cfu/ml
- log reduction in colony count ([1]; 60 μg/ml methicillin, 48 hours): 4.1 log
- recovery after enrichment in Mueller-Hinton broth ([1]; 60 μg/ml methicillin, 72 hours, detection limit 1 cfu/ml): true total kill
- colony count ([1]; 60 μg/ml methicillin, 96 hours): TNTC
- recovery after enrichment in Mueller-Hinton broth ([1]; 60 μg/ml methicillin, 120 hours, detection limit 1 cfu): true total kill
- growth ([1]; positive 5%, 10%, and 16% MSM controls, no antibiotic, 24 hours): signs of turbid growth, was TNTC for all dilutions plated
- survival (Log cfu/ml) ([2]; 48 hours, inoculum Log=5.96, listed as 5% MSM): 7.0 Log cfu/ml
- survival (Log cfu/ml) ([2]; 48 hours, inoculum Log=5.96, listed as 8% MSM): 4.0 Log cfu/ml
- survival (Log cfu/ml) ([2]; 48 hours, inoculum Log=5.96, listed as 10% MSM): 4.6 Log cfu/ml
- survival (Log cfu/ml) ([2]; 48 hours, inoculum Log=5.96, listed as 12% MSM): 3.8 Log cfu/ml
- survival (Log cfu/ml) ([2]; 48 hours, inoculum Log=5.96, listed as 13% MSM): 3.8 Log cfu/ml
- survival (Log cfu/ml) ([2]; 48 hours, inoculum Log=5.96, listed as 14% MSM): 4.0 Log cfu/ml
- survival (Log cfu/ml) ([2]; 48 hours, inoculum Log=5.96, listed as 15% MSM): 4.1 Log cfu/ml
- survival (Log cfu/ml) ([2]; 48 hours, inoculum Log=5.96, listed as 16% MSM): 5.3 Log cfu/ml
- survival (Log cfu/ml) ([2]; 7 days, listed as 5% MSM): 7.9 Log cfu/ml
- survival (Log cfu/ml) ([2]; 7 days, listed as 8% MSM): 7.6 Log cfu/ml
- survival (Log cfu/ml) ([2]; 7 days, listed as 10% MSM): 7.2 Log cfu/ml
- survival (Log cfu/ml) ([2]; 7 days, listed as 12% MSM): 7.1 Log cfu/ml
- survival (Log cfu/ml) ([2]; 7 days, listed as 13% MSM): 7.2 Log cfu/ml
- survival (Log cfu/ml) ([2]; 7 days, listed as 14% MSM): 7.0 Log cfu/ml
- survival (Log cfu/ml) ([2]; 7 days, listed as 15% MSM): 6.9 Log cfu/ml
- survival (Log cfu/ml) ([2]; 7 days, listed as 16% MSM): 1.0 Log cfu/ml
- surviving bacteria ([2]; 6 μg/ml oxacillin added each day, day 7): no surviving bacteria
